Reference: patent publication US20250320252A1 (The Scripps Research Institute, priority 2021, published 2025)
“And” between values parts separate entries of the source, which are not always exact repeats. Identical values can stand only once. Like-named read-outs stand apart in the source and are kept apart here.

Tests used:
[1] = dog, in vivo
wild-type mice = experiment: Oral glucose tolerance test 2 h and 96 h post injection in wild-type mice; assay type: in vivo, mouse; settings: 10 nmol/kg s.c., vs vehicle
Protocol: Data are means±SE, n=6 per group.
Oral glucose tolerance test (OGTT) Female Charles River CD-1 mice were fasted overnight and then administrated 150 μL of each peptide in PBS (pH=8.2) by i.v. or s.c. route.

normal mice = experiment: Oral glucose tolerance test 12 h after single SC dose in mice; assay type: in vivo, mouse; settings: 10 nmol/kg S.C., 12 h before glucose
Protocol: Mice were fasted overnight prior to the oral glucose tolerance test (OGTT), and then dosed with peptide. After 12 h, 1 g of glucose solution per kg body weight was administered orally, and mouse tail blood glucose levels were measured before (0 min) and after glucose challenge for 90 minutes (with measurements at 15, 30, 60 and 90 minutes) (FIG. 16). The data were compared using the unpaired Student's t test. Where appropriate, data were compared using repeated measures or one-way analysis of variance, followed by the Student-Newman-Keuls post hoc test. Calculations for […] (mg/dL*min) were also analyzed and graphed in FIG. 16. […]. […].

in vitro = in vitro ADME; settings: dog, human, plasma
Protocol: (§1) To investigate the stability of the conjugates in mouse, cyno monkey, dog, and human plasma, conjugate mCMD307 was incubated in plasma for 24 h (Table 13). At certain time intervals a sample of plasma was taken and plasma proteins precipitated. Samples were analyzed using LC-MS.

[2] = assay type: in vitro ADME, cynomolgus monkey
Protocol: as §1

[3] = Plasma stability, 24 h, LC-MS, mouse plasma; assay type: in vitro ADME
Protocol: as §1

[4] = Pharmacokinetics in CD-1 mouse, plasma concentration by LC-MS; assay type: in vivo
Protocol: The peptide plasma concentration at various time points was determined using LC-MS.

[5] = cynomolgus monkey, in vivo
[6] = 1 mg/kg I.V., individual animals, 1 mg/kg
[7] = 1 mg/kg S.C., individual animals, 1 mg/kg

For CC[C@H](C)[C@H](NC(=O)[C@H](CC(C)C)NC(=O)[C@H](Cc1c[nH]c2ccccc12)NC(=O)[C@@H]1CSCC(=O)NCCN(C(=O)CCC(=O)NCCOCCOCCC(=O)NCCOCCOCCC(=O)NCCCC[C@H](NC(=O)CCCCCCCCCCCCCCCCCCC(=O)O)C(=O)O)CCNC(=O)CSC[C@H](NC(=O)[C@H](CCCCN)NC(=O)[C@H](CC(=O)O)NC(=O)[C@H](CC(C)C)NC(=O)[C@H](Cc2ccc(O)cc2)NC(=O)[C@@H](NC(=O)[C@H](CO)NC(=O)[C@H](Cc2ccc(O)cc2)NC(=O)[C@H](CC(=O)O)NC(=O)[C@H](CO)NC(=O)[C@@H](NC(=O)[C@H](Cc2ccccc2)NC(=O)[C@@H](NC(=O)CNC(=O)[C@H](CCC(=O)O)NC(=O)C(C)(C)NC(=O)[C@@H](N)Cc2ccc(O)cc2)[C@@H](C)O)[C@@H](C)O)[C@@H](C)CC)C(=O)N[C@@H](C)C(=O)N[C@@H](C)C(=O)NC(C)(C)C(=O)N[C@@H](CCC(=O)O)C(=O)N[C@@H](Cc2ccccc2)C(=O)N[C@@H](C(C)C)C(=O)N1)C(=O)N[C@@H](C)C(=O)NCC(=O)NCC(=O)N1CCC[C@H]1C(=O)N[C@@H](CO)C(=O)N[C@@H](CO)C(=O)NCC(=O)N[C@@H](C)C(=O)N1CCC[C@H]1C(=O)N1CCC[C@H]1C(=O)N1CCC[C@H]1C(=O)N[C@@H](CO)C(N)=O [mCMV268, YAibEGT-FTSDY-SIYLD-KXAAAib-EFVXW-LIAGG-PSSGA-PPPS-NH2 (where each X is C)], the Bioavailability ([1]; po) was 0.27%, 0.27%,.
With Semaglutide the “glucose tolerance (OGTT) 96 h after administration” value (wild-type mice) was “did not exhibit any improvement over the vehicle” and the “effects on glucose tolerance at 10 nmol/kg” value (normal mice) was “indistinguishable effects on glucose tolerance”.
With CC[C@H](C)[C@H](NC(=O)[C@H](CO)NC(=O)[C@H](Cc1ccc(O)cc1)NC(=O)[C@H](CC(=O)O)NC(=O)[C@H](CO)NC(=O)[C@@H](NC(=O)[C@H](Cc1ccccc1)NC(=O)[C@@H](NC(=O)CNC(=O)[C@H](CCC(=O)O)NC(=O)C(C)(C)NC(=O)[C@@H](N)Cc1ccc(O)cc1)[C@@H](C)O)[C@@H](C)O)C(=O)N[C@@H](Cc1ccc(O)cc1)C(=O)N[C@H]1CCCCNC(=O)CN(C(=O)CCNC(=O)CCOCCOCCOCCNC(=O)CCCCCCCCCCCCCCCCC(=O)O)CC(=O)NCCCC[C@@H](C(=O)N[C@@H](Cc2ccccc2)C(=O)N[C@H](C(=O)N[C@@H](CC(N)=O)C(=O)N[C@@H](Cc2c[nH]c3ccccc23)C(=O)N[C@@H](CC(C)C)C(=O)N[C@@H](CC(C)C)C(=O)N[C@@H](C)C(=O)NCC(=O)NCC(=O)N2CCC[C@H]2C(=O)N[C@@H](CO)C(=O)N[C@@H](CO)C(=O)NCC(=O)N[C@@H](C)C(=O)N2CCC[C@H]2C(=O)N2CCC[C@H]2C(=O)N2CCC[C@H]2C(=O)N[C@@H](CO)C(N)=O)C(C)C)NC(=O)C(C)(C)NC(=O)[C@H](C)NC(=O)[C@H](C)NC(=O)[C@H](CCC(N)=O)NC(=O)[C@H](CCCCN)NC(=O)[C@H](CC(=O)O)NC1=O [mCMD307, YAibEGT-FTSDY-SIYXD-KQAAAib-XFVNW-LLAGG-PSSGA-PPPS-NH2 (where each X is K)] the remaining at 24 h (in vitro) was 92%, the “Area under the peak (%)” value [2] was 87% and the “Area under the peak (%)” value [3] was 53%.
With CC[C@H](C)[C@H](NC(=O)[C@H](CC(C)C)NC(=O)[C@H](Cc1c[nH]c2ccccc12)NC(=O)[C@@H]1CSCC(=O)NCCN(C(=O)CCC(=O)NCCOCCOCCC(=O)NCCOCCOCCC(=O)NCCCC[C@H](NC(=O)CCCCCCCCCCCCCCCCC(=O)O)C(=O)O)CCNC(=O)CSC[C@H](NC(=O)[C@H](CCCCN)NC(=O)[C@H](CC(=O)O)NC(=O)[C@H](CC(C)C)NC(=O)[C@H](Cc2ccc(O)cc2)NC(=O)[C@@H](NC(=O)[C@H](CO)NC(=O)[C@H](Cc2ccc(O)cc2)NC(=O)[C@H](CC(=O)O)NC(=O)[C@H](CO)NC(=O)[C@@H](NC(=O)[C@H](Cc2ccccc2)NC(=O)[C@@H](NC(=O)CNC(=O)[C@H](CCC(=O)O)NC(=O)C(C)(C)NC(=O)[C@@H](N)Cc2ccc(O)cc2)[C@@H](C)O)[C@@H](C)O)[C@@H](C)CC)C(=O)N[C@@H](C)C(=O)N[C@@H](C)C(=O)NC(C)(C)C(=O)N[C@@H](CCC(=O)O)C(=O)N[C@@H](Cc2ccccc2)C(=O)N[C@@H](C(C)C)C(=O)N1)C(=O)N[C@@H](C)C(=O)NCC(=O)NCC(=O)N1CCC[C@H]1C(=O)N[C@@H](CO)C(=O)N[C@@H](CO)C(=O)NCC(=O)N[C@@H](C)C(=O)N1CCC[C@H]1C(=O)N1CCC[C@H]1C(=O)N1CCC[C@H]1C(=O)N[C@@H](CO)C(N)=O [mCMZ371, YAibEGT-FTSDY-SIYLD-KXAAAib-EFVXW-LIAGG-PSSGA-PPPS-NH2 (where each X is C)] the “AUC compared with mCMZ370” value ([4]; 1 mg/kg I.V. or S.C.) was “significantly larger area under the curve”, the “half-life compared with mCMZ370” value ([4]; 1 mg/kg I.V. or S.C.) was “longer half-life” and the Tlast ([4]; 1 mg/kg I.V., individual animals) was 72 h. For the same compound, the “AUC—%Extrap—pred” value [4, 6] was 0.75%, the “Cl—pred” value [4, 6] was 2.76 mL/h/kg and 2.46 mL/h/kg and the Tlast ([4]; 1 mg/kg S.C., individual animals) was 72 h. For the same compound, the “Cl—Fpred” value [4, 7] was 7.2 mL/h/kg and 4.8 mL/h/kg and 14.4 mL/h/kg, the “V—F—pred” value [4, 7] was 0.06 L/kg and 0.12 L/kg and 0.08 L/kg and the Vd ([4]; in vivo, iv, 1 mg/kg I.V., individual animals, read-out: Vss—pred) was 0.054 L/kg. The clearance ([4]; mouse, in vivo, iv, 1 mg/kg, 1 mg/kg I.V., individual animals, read-out: Cl—pred) was 2.88 mL/h/kg, the “t1/2 in cynomolgus monkeys” value [5] was “long t1/2” and the Tlast ([5]; iv) was 240 h. For the same compound, the Tlast ([5]; sc) was 240 h, the “t1/2 in dogs” value [1] was “long t1/2” and the Tlast ([1]; iv) was 240 h. It also gave a Tlast ([1]; sc) of 240 h.
